Assay [1] has as its system A549. As to the kind of experiment: Cytotoxicity against human A549 cells. It is filed as functional. The settings on record: read-out: LC50 (the source's name).
Assay [2] concerns the target Sodium/potassium-transporting ATPase (Homo sapiens) (UniProt P05023+P14415+P05026+P50993+P54709+P13637+Q13733+P54710).
Description: Inhibition of Na+/K+ ATPase (unknown origin)
The subject of assay [3] is K562. The assay can be described thus: Cytotoxicity against human K562 cells. It is filed as functional. The settings on record: read-out: LC50 (the source's name).

Numbered stars: 1 amine (or outer) side, 2 acyl side, 3 side chain; on linkers, the order of the positions; unused ones are H or OH. Bridge positions count the residues as written; N and C are the ends. Square brackets hold non-standard residues; d marks the D form. Peptide text beside a SMILES is read from it. * marks the point of attachment. X1 = O=C([C@@H]1CCCN1C[C@@H]1CCCN1[*:1])[*:2]; pGlu = O=C1CC[C@@H](C(=O)O)N1; X2 = Oc1ccc(/C=C/N*)cc1

With `O=C1CC[C@@H](C(=O)N[C@H]2CSSC[C@@H](C(=O)N/C=C/c3ccc(O)cc3)NC(=O)[C@H](Cc3ccccc3)NC(=O)[C@@H]3CCCN3C[C@@H]3CCCN3C2=O)N1` ([pGlu]C[X1]FC-X2; disulfide 2-5), the CC50 in assay [1] stood at 7.1 µM; in assay [3], 6.9 µM. The same compound came in with a median lethal concentration (LC50) in assay [2] of 17.8 µM.

`COc1cccc2c1C(=O)c1c(O)c3c(c(O)c1C2=O)C[C@@](O)(C(=O)CO)C[C@@H]3O[C@H]1C[C@H](N)[C@H](O)[C@H](C)O1` [DOXORUBICIN]: the results for the CC50 in assay [1] and in assay [3] were 0.5 µM and 0.7 µM, respectively.

A word on the LC50: it is the concentration that kills 50% of the test population. A low value points to a more lethal substance.
